The source of these data is US9394308B2, “Inhibiting the transient receptor potential A1 ion channel” (Merck Sharp & Dohme Corp., priority 2013, dated 2016).

“Also recorded” adds a separate entry of the source.

The nature of series [1]: Rodent acute tolerability test, liver function tests (Example 5). Conditions: rat; for LFT blood levels ALT and AST (in words): intravenous bolus, about 24 hours post dose; for serum biomarkers of hepatotoxicity (in words): in vivo. Type of series: in vivo, Female Sprague Dawley rats. How it is done: Compounds of Formula (I) were assessed for acute tolerability in a rodent model at dose levels ranging from 100-200 mg/kg based upon the minimum efficacious dose of each compound. Female Sprague Dawley rats were administered up to a 10 mL/kg dose volume of each compound in 0.9% saline at appropriate concentrations as an intravenous bolus via the lateral tail vein. The animals were observed immediately post dose and for up to twenty four hours post dose and clinical observations were recorded. Additionally, approximately twenty four hours post dose animals were euthanized and blood taken for serum chemistry analysis with a focus on liver function tests (LFTs). The maximum tolerated single dose and LFT results are summarized in Table 3 in FIG. 3, where ( ? ) indicates blood levels of markers for potential liver damage within normal range and (↑) indicates blood levels of markers for potential liver damage elevated above normal range. Referring to the data in Table 3, LFT blood levels of markers for potential liver damage remained within normal range for the compounds of Formula (I), while LFTs were elevated for Comparator Compounds including 5-10 fold elevation above normal for ALT and AST blood levels observed upon administration of Comparator Compound 1.

The nature of series [2]: Aqueous solubility (Example 2). The class given is physicochemical. Conditions: method of Example 2. Here is the method:
Compounds of Formula (I) where R^1 is —CH2—R^1a, and R^1a is phosphate, have suitable levels of aqueous solubility for incorporation in a pharmaceutical composition formulated for intravenous administration. Unless otherwise indicated, the aqueous solubility of compounds of Formula (I) in Tables in FIG. 1 was measured using the procedure of Example 2 (Kerns, E. H., Journal of Pharmaceutical Sciences 2001, 90, 1838-1858, incorporated herein by reference). Solubility data was obtained by this method for compounds of Formula (I) and included in FIG. 1. The chromatographic data was performed using (type of HPLC). The column used was an Xbridge Shield RP18 with the following column dimensions: 4.6×30 mm, 3.5 μm. The mobile phase consisted of deionized water (MPA) with trifluoroacetic acid added in at 0.1% (v/v) (MPC) and HPLC-grade acetonitrile (MPB). The mobile phase flow rate was 2.5 mL/min with the column and sampling operating at ambient temperature. UV detection was set to 280 nm. For all samples used for solubility determination, the mobile phase gradient used was as follows in Table 1g below.
Stock solutions of compounds of Formula (I) where R^1 is —CH2—R^1a, and R^1a is phosphate, were prepared in water at 20 mg/mL. Stock solutions of the compounds of Formula (I), wherein R^1 is hydrogen, were prepared in dimethyl acetamide at 20 mg/mL. […]

The test system of a further series is CFA Cold Allodynia. Description: Rodent cold plate pain model, Complete Freund's Adjuvant (Example 4). The class given is in vivo. Conditions: rat. How it is done: CFA-induced pain test method reported in del Camino et al., J. Neurosci., 30 (45):15165-15174, incorporated herein by reference in its entirety. Briefly, the right hind paw is sensitized to cold temperature (allodynic) by administering 0.1 mL of Complete Freund's Adjuvant (CFA) to that paw. Two to four days later, the time it takes for the animal to lift its CFA-injected paw from the cold surface is recorded compared to its un-injected normal left hind paw. […] To avoid tissue damage, the maximum cut-off time is five minutes. Animals that are allodynic (average PWL to the first three pain behaviors<150 seconds for the CFA-injected hind paw: ˜≧50% difference between the normal and CFA-injected paw) are included in the study and subsequently randomized across treatment groups. The following day, the animals in some groups are dosed with a test compound under blinded conditions. Following the one to two hour pre-treatment time, the post-dose PWL readings are taken again. The efficacy of the drug treatment is assessed by comparing the PWL in the drug treatment animals to those that receive the vehicle.

Take `C[C@H]1CCCN1c1ncc(-c2cncc(N(COP(=O)(O)O)C(=O)[C@H](C)n3cnc4c3c(=O)n(C)c(=O)n4C)n2)cn1` [((S)-2-(1,3-dimethyl-2,6-dioxo-1,2,3,6-tetrahydro-7H-purin-7-yl)-N-(6-(2-((S)-2-methylpyrrolidin-1-yl)pyrimidin-5-yl)pyrazin-2-yl)propanamido)methyl dihydrogen phosphate]: the “LFT blood levels ALT and AST (in words)” value in series [1] is “did not result in abnormally high levels of LFT compounds ALT or AST”. For the compound `C[C@H]1CCCN1c1ccc(-c2csc(NC(=O)Cn3cnc4c3c(=O)n(C)c(=O)n4C)n2)cc1F` [Comparator Compound 1, reference compound], the “serum biomarkers of hepatotoxicity (in words)” value in series [1] is listed as “elevate the serum biomarkers of hepatotoxicity”. With `C[C@H]1CCCN1c1ncc(-c2cccc(NC(=O)Cn3cnc4c3c(=O)n(C)c(=O)n4C)n2)cn1` [Comparator Compound 2, reference compound], the “serum biomarkers of hepatotoxicity (in words)” value in series [1] was “did not elevate the serum biomarkers of hepatotoxicity”. Moreover, in series [2], the “aqueous solubility (in words)” value was “undesirably low aqueous solubility”. `C[C@@H](C(=O)N(COP(=O)([O-])O)c1cccc(-c2cnc(N3CCC[C@H]3C(F)(F)F)nc2)n1)n1cnc2c1c(=O)n(C)c(=O)n2C.[Na+]` [Compound 1-A, ((S)-2-(1,3-dimethyl-2,6-dioxo-1,2,3,6-tetrahydro-7H-purin-7-yl)-N-(6-(2-((S)-2-(trifluoromethyl)pyrrolidin-1-yl)pyrimidin-5-yl)pyridin-2-yl)propanamido)methyl dihydrogen phosphate]: the “LFT blood levels ALT and AST (in words)” value in series [1] is listed as “did not result in abnormally high levels of LFT compounds ALT or AST”. Moreover, in the series with CFA Cold Allodynia (CFA cold plate model), the “effect on cold allodynia (in words)” value was “analgesic effect on cold allodynia; also recorded: reversal of CFA Cold Allodynia”. Further, the “Paw Withdrawal Latency (PWL) (in words)” value in the series on CFA Cold Allodynia (i.p. administration, CFA model, cold plate 1° C.) is on record as “increased rodent Paw Withdrawal Latency”. For `C[C@@H](C(=O)N(COP(=O)(O)O)c1cncc(-c2cnc(N3CCC[C@H]3C(F)(F)F)nc2)n1)n1cnc2c1c(=O)n(C)c(=O)n2C` [Compound 2-E, ((S)-2-(1,3-dimethyl-2,6-dioxo-1,2,3,6-tetrahydro-7H-purin-7-yl)-N-(6-(2-((S)-2-(trifluoromethyl)pyrrolidin-1-yl)pyrimidin-5-yl)pyrazin-2-yl)propanamido)methyl dihydrogen phosphate], the “LFT blood levels ALT and AST (in words)” value in series [1] is listed as “did not result in abnormally high levels of LFT compounds ALT or AST”. The same measure, in the same setting: next, `C[C@@H](C(=O)N(COP(=O)(O)O)c1cncc(-c2cnc(N3CCCC3(C)C)nc2)n1)n1cnc2c1c(=O)n(C)c(=O)n2C` [Compound 3-J, (S)-(2-(1,3-dimethyl-2,6-dioxo-1,2,3,6-tetrahydro-7H-purin-7-yl)-N-(6-(2-(2,2-dimethylpyrrolidin-1-yl)pyrimidin-5-yl)pyrazin-2-yl)propanamido)methyl dihydrogen phosphate]: “did not result in abnormally high levels of LFT compounds ALT or AST”.
